Test results from US9447069B2, “ROR modulators and their uses” (INNOV17 LLC, priority 2012, dated 2016).

Assays:
IL-17AF = test: TH17 cytokine inhibition measured by ELISA (IL-17AF); assay type: cell-based; settings: 120 h; human TH17 cells, 5 days differentiation, ELISA of supernatants, 0.1% DMSO
Method: (§1) Peripheral blood mononuclear cells (PBMCs) were sourced from freshly prepared leukocyte enriched plasma (buffy coat) from healthy volunteers from which PBMCs were isolated by density gradient centrifugation using Ficoll-Paque™ PLUS (GE Healthcare). Naïve CD4+ T cells were isolated using the Naïve CD4+ T cell Isolation Kit II (Miltenyi Biotec) as per manufacturer's instructions. CD4+ T cells were plated at 5×10^4 cells/well in 96 well plates pre-coated with immobilized human (h)-αCD3 antibody (eBioscience) then differentiated to TH17 cells using h-αCD28, h-αIFN-γ, h-αIL-4, h-IL-6, h-IL-23, h-IL-1β, h-TGF-β1 (eBioscience) and maintained in a cell culture incubator at 37° C. with 5% CO2 in TexMACS Medium (Miltenyi Biotec) supplemented with 1% Penicillin/Streptomycin (Lonza) over 5 days.
(§2) Human CD4+ T cells were differentiated to TH17 cells as described in the presence or absence of various concentrations of compounds in a final concentration of 0.1% DMSO in TexMACS medium. Supernatants were collected and stored at −20° C. until they were to be assayed for IL-17A, IL-17F, IL-17AF, IL-21 and/or IL-22 levels as determined by Ready-Set-Go ELISA kits (eBioscience) as per manufacturer's instructions. Endpoint absorbance was read at 450 nm and 570 nm according to manufacturer's instructions (eBioscience) using a microplate reader (Perkin Elmer). The percentage of cytokine inhibition was calculated with reference to DMSO treated cells and the IC50s were determined by GraphPad Prism software and presented in the table below.

[1] = TH17 cell viability (Prestoblue); assay type: cell-based; settings: human; 1 μM compound, after 5 days, percentage of DMSO treated cells
Method: as §1
Cells were assayed for viability in the presence or absence of 1 μM compound using Prestoblue® Cell Viability Reagent (Life Technologies) as per manufacturer's instructions after 30 minutes incubation of TH17 cells with reagent. Absorbance was measured at 570 nm and 600 nm using a microplate reader (Perkin Elmer) and data were analyzed as per manufacturer's instructions. Cell viability was determined after 5 days and expressed as a percentage of DMSO treated cells.

IL-21 = test: TH17 cytokine inhibition measured by ELISA (IL-21); assay type: cell-based; settings: 120 h; human TH17 cells, 5 days differentiation, ELISA of supernatants, 0.1% DMSO
Method: as §1, §2

IL-17A = test: TH17 cytokine inhibition measured by ELISA (IL-17A); assay type: cell-based; settings: 120 h; human TH17 cells, 5 days differentiation, ELISA of supernatants, 0.1% DMSO
Method: as §1, §2

RORα LBD [2] = target: T1, RORα LBD (Homo sapiens, UniProt P35398); test: TR-FRET D22 co-activator displacement from RORα LBD; assay type: biochemical
T1 construct: purified GST-tagged (i) RORγ LBD or (ii) RORα LBD; purchased Life Technologies
T1 sequence (P35398 272-510 limits assumed): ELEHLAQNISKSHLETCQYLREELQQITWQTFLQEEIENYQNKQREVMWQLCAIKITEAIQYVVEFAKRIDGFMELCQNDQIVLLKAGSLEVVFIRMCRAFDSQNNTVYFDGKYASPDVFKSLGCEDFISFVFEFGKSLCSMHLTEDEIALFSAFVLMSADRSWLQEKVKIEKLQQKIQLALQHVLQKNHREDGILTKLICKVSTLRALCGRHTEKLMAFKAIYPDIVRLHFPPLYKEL
Description: (§3) The Time-Resolved Fluorescence Resonance Energy Transfer (TR-FRET) assay kit (Life Technologies) was used to measure compound efficacy to disrupt or enhance ligand-mediated interaction of the co-activator and co-repressor peptides with the purified GST-tagged (i) RORγ LBD or (ii) RORα LBD. The RORγ LBD and RORα LBD each have a basal level of interaction with the co-activator D22 or co-repressor NCoR1-D2 in the absence of ligand, thus it is possible to identify compounds that inhibit or induce RORγ and/or RORα co-activator/co-repressor interactions, thus determining RORα, RORγ, or RORα/RORγ compound selectivity. The assay was performed as per manufacturer's instructions and TR-FRET was assessed 2 and 20 hours post-assay initiation. Compounds were identified to (i) have no impact on either co-activator displacement or […] from the assessed LBD (ii) promote co-activator displacement from the assessed LBD (iii) promote co-repressor recruitment to the assessed LBD or (iv) concurrently promote co-activator displacement from the assessed LBD and co-repressor recruitment to the assessed LBD.

RORγ LBD [3] = target: T2, RORγ LBD (Homo sapiens, UniProt P51449); test: TR-FRET D22 co-activator displacement from RORγ LBD; assay type: biochemical; set-up: purified GST-tagged (i) RORγ LBD or (ii) RORα LBD; purchased Life Technologies
T2 sequence (P51449 269-508 limits assumed): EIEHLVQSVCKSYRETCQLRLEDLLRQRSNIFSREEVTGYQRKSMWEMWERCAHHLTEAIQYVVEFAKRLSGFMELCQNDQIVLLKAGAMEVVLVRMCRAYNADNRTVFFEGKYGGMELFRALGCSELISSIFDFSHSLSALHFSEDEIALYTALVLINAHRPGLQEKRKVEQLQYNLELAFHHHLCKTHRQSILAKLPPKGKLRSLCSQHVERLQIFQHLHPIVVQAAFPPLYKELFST
Description: as §3

IL-22 = test: TH17 cytokine inhibition measured by ELISA (IL-22); assay type: cell-based; settings: 120 h; human TH17 cells, 5 days differentiation, ELISA of supernatants, 0.1% DMSO
Method: as §1, §2

TH17 cells = test: TH17 cellular proliferation (Prestoblue); assay type: cell-based; settings: Homo sapiens, 120 h; 3 μM compound, after 5 day TH17 differentiation, relative to DMSO treated TH17 cells; read-out: % change in TH17 cell number
Method: as §1
Cellular proliferation was assessed in the presence or absence of 3 μM compound using Prestoblue® Cell Viability Reagent (Life Technologies) as per manufacturer's instructions using absorbance as the output measured by a microplate reader (Perkin Elmer) after 30 minutes of incubation. A standard curve developed by plotting varying cell numbers versus absorbance was used to assess differences in cellular proliferation between compound treated or untreated cells after the 5 day TH17 differentiation period.

IL-17F = test: TH17 cytokine inhibition measured by ELISA (IL-17F); assay type: cell-based; settings: 120 h; human TH17 cells, 5 days differentiation, ELISA of supernatants, 0.1% DMSO
Method: as §1, §2

RORα LBD [4] = target: T1, RORα LBD; test: TR-FRET NCoR1-D2 co-repressor recruitment to RORα LBD; assay type: biochemical
Description: as §3

RORγ LBD [5] = target: T2, RORγ LBD; test: TR-FRET NCoR1-D2 co-repressor recruitment to RORγ LBD; assay type: biochemical; set-up: purified GST-tagged (i) RORγ LBD or (ii) RORα LBD; purchased Life Technologies
Description: as §3

[6] = TR-FRET assessed 2 hr post-assay initiation, read-out: RORα EC50 D22 co-activator displacement, 2 hr
[7] = TR-FRET assessed 20 hr post-assay initiation, read-out: RORα EC50 D22 co-activator displacement, 20 hr
[8] = TR-FRET assessed 2 hr post-assay initiation, read-out: RORγ EC50 D22 co-activator displacement, 2 hr
[9] = TR-FRET assessed 20 hr post-assay initiation, read-out: RORγ EC50 D22 co-activator displacement, 20 hr
[10] = TR-FRET assessed 2 hr post-assay initiation, read-out: RORα EC50 NCoR1-D2 co-repressor recruitment, 2 hr
[11] = TR-FRET assessed 20 hr post-assay initiation, read-out: RORα EC50 NCoR1-D2 co-repressor recruitment, 20 hr
[12] = TR-FRET assessed 2 hr post-assay initiation, read-out: RORγ EC50 NCoR1-D2 co-repressor recruitment, 2 hr
[13] = TR-FRET assessed 20 hr post-assay initiation, read-out: RORγ EC50 NCoR1-D2 co-repressor recruitment, 20 hr

| SMILES | IC50 (IL-17AF) [µM] | viability at 5 days, 1 µM [1] [%] | IC50 (IL-21) [µM] | IC50 (IL-17A) [µM] | EC50 (RORα LBD [2]; [6]) [µM] | EC50 (RORα LBD [2]; [7]) [µM] | EC50 (RORγ LBD [3]; [8]) [µM] | EC50 (RORγ LBD [3]; [9]) [µM] | IC50 (IL-22) [µM] | inhibition at 3 µM (TH17 cells) [%] | IC50 (IL-17F) [µM] | EC50 (RORα LBD [4]; [10]) [µM] | EC50 (RORα LBD [4]; [11]) [µM] | EC50 (RORγ LBD [5]; [12]) [µM] | EC50 (RORγ LBD [5]; [13]) [µM] | melting point [°C] |
| --- | --- | --- | --- | --- | --- | --- | --- | --- | --- | --- | --- | --- | --- | --- | --- | --- |
| Cc1cc(-c2ccc3c(c2)CCN3Cc2ccc(C(O)(C(F)(F)F)C(F)(F)F)cc2)[nH]n1 [Example 7, 1,1,1,3,3,3-hexafluoro-2-(4-((5-(3-methyl-1H-pyrazol-5-yl)indolin-1-yl)methyl)phenyl)propan-2-ol] | < 10 | > 80 | < 10 | < 10 | < 30 | < 30 | < 30 | < 30 | < 10 | > 50 | < 10 | > 30 | < 30 | < 30 | < 30 |  |
| OC(c1ccc(CN2CCc3cc(-c4cn[nH]c4)ccc32)cc1)(C(F)(F)F)C(F)(F)F [Example 8, 2-(4-((5-(1H-pyrazol-4-yl)indolin-1-yl)methyl)phenyl)-1,1,1,3,3,3-hexafluoropropan-2-ol] | < 10 | > 80 | < 10 | < 10 | > 30 | < 30 | < 30 | < 30 | < 10 | > 50 | < 10 | < 30 | > 30 | < 30 | > 30 | 191 to 195 |
| Cc1nnc(-c2ccc3c(c2)CCN3Cc2ccc(C(O)(C(F)(F)F)C(F)(F)F)cc2)o1 [Example 9, 1,1,1,3,3,3-hexafluoro-2-(4-((5-(5-methyl-1,3,4-oxadiazol-2-yl)indolin-1-yl)methyl)phenyl)propan-2-ol] | > 10 | > 80 | < 10 | < 10 | > 30 | < 30 | > 30 | > 30 | < 10 | > 50 | < 10 | > 30 | < 30 | < 30 | > 30 |  |
